The assay has as its target ROCK2 (Homo sapiens (Human), UniProt O75116). The assay can be described thus: biochemical.

35 compounds from patent US10112929B2, “Lactams as inhibitors of rock” (BRISTOL-MYERS SQUIBB COMPANY, priority 2015, dated 2018) can be followed below.

SMILES strings stand for the structures. Structures can show the parent of a compound that is named as a salt.
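Further: rho kinase enzyme reaction halted with EDTA, phospho- and non-phospho peptide separated for read-out, kinase activity inhibition derived across a dose-response series, DMSO under 2%.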

ROCK2, sequence (O75116 whole entry, species assumed): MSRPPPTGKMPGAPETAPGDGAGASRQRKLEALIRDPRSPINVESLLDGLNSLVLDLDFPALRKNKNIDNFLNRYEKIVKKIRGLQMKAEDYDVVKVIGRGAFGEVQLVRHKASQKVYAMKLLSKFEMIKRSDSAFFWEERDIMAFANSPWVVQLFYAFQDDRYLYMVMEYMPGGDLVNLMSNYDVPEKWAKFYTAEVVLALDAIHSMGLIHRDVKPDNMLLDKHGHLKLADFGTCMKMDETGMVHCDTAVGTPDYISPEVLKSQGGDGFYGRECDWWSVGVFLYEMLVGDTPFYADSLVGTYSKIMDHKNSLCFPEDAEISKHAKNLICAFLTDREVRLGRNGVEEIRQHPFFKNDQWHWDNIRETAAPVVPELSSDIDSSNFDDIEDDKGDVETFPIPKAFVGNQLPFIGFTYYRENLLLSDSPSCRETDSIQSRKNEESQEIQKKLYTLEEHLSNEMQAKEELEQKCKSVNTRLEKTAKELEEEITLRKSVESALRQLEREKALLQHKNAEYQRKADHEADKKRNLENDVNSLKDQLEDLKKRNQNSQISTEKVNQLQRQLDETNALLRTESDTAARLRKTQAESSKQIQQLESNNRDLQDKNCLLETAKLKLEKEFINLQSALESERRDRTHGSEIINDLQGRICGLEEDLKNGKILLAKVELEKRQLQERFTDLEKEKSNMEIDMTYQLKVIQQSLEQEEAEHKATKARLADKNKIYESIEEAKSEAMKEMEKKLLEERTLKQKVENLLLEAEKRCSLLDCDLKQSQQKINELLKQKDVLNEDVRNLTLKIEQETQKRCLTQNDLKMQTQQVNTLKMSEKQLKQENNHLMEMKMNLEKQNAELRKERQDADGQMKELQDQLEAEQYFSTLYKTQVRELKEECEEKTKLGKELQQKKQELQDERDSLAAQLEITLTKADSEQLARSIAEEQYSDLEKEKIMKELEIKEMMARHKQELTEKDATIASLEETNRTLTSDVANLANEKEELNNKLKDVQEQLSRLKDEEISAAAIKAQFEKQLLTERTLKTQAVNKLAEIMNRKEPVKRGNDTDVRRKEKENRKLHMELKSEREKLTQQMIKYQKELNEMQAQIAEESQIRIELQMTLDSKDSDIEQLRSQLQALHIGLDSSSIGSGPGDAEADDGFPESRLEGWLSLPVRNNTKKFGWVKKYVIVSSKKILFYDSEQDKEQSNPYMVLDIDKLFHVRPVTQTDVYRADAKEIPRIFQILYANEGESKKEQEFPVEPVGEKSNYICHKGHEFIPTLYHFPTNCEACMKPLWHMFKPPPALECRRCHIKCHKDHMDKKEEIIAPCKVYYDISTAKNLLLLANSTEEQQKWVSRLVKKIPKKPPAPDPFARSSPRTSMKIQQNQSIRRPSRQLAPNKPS

In turn, `CN(C)c1cccc(N[C@@H]2CCN(c3ccc(-c4cn[nH]c4)cc3)C2=O)c1` [Example 390, (R)-1-(4-(1H-pyrazol-4-yl)phenyl)-3-((3-(dimethylamino)phenyl)amino)pyrrolidin-2-one] returned an IC50 of 100 to 2200 nM.
Compound `COc1cc(NC2CCN(c3ccc(-c4cn[nH]c4)c(Cl)c3)C2=O)ccc1F` (single isomer, unassigned) [Example 160, 1-(3-chloro-4-(1H-pyrazol-4-yl)phenyl)-3-((4-fluoro-3-methoxyphenyl)amino) pyrrolidin-2-one] had an IC50 of 10 to 100 nM.
Compound `COc1cccc(NC2CCN(c3cc(F)c(-c4cn[nH]c4)c(F)c3)C2=O)c1` (single isomer, unassigned) [Example 311, 1-(3,5-difluoro-4-(1H-pyrazol-4-yl)phenyl)-3-((3-methoxyphenyl)amino)pyrrolidin-2-one] yielded an IC50 below 10 nM.
`COc1nc(N2CCC(N3CC[C@@H](N(C)C)C3)C2=O)ccc1-c1cn[nH]c1` (mixture of isomers) [Example 293, (3R)-3-(dimethylamino)-1′-(6-methoxy-5-(1H-pyrazol-4-yl)pyridin-2-yl)-[l,3′-bipyrrolidin]-2′-one] registered an IC50 of 100 to 2200 nM.
`COc1cc(NC2CCN(c3cc(C)c(-c4cn[nH]c4)cn3)C2=O)ccc1F` (single isomer, unassigned) [Example 209, 3-((4-fluoro-3-methoxyphenyl)amino)-1-(4-methyl-5-(1H-pyrazol-4-yl)pyridin-2-yl)pyrrolidin-2-one] showed an IC50 of 100 to 2200 nM.
Compound `COc1cccc(NC2CCN(c3ccc(-c4ccncc4F)c(C)n3)C2=O)c1` (single isomer, unassigned) [Example 121, 1-(3′-fluoro-2-methyl-[3,4′-bipyridin]-6-yl)-3-((3-methoxyphenyl)amino)pyrrolidin-2-one] displayed a half-maximal inhibitory concentration (IC50) of 100 to 2200 nM.
`COc1cccc2c1N(C1CCN(c3ccc(-c4cn[nH]c4)cc3)C1=O)CC2` (single isomer, unassigned) [Example 51, l-(4-(1H-pyrazol-4-yl)phenyl)-3-(7-methoxyindolin-1-yl)pyrrolidin-2-one] showed an IC50 of 10 to 100 nM.
For the compound `COc1cccc(C(=O)NC2CCN(c3ccc(-c4cn[nH]c4)cc3)C2=O)c1` (centres unmarked) [Example 65, N-(1-(4-(1H-Pyrazol-4-yl)phenyl)-2-oxopyrrolidin-3-yl)-3-methoxybenzamide], the IC50 was 100 to 2200 nM.
`CCc1nc(N2CCC(Nc3cc(F)cc(OC)c3)C2=O)ccc1-c1cn[nH]c1` (single isomer, unassigned) [Example 315, 1-(6-ethyl-5-(1H-pyrazol-4-yl)pyridin-2-yl)-3-((3-fluoro-5-methoxyphenyl)amino) pyrrolidin-2-one] displayed an IC50 of 10 to 100 nM.
For the compound `CCc1nc(N2CCC(Nc3ccc(F)c(OC)c3)C2=O)ccc1-c1cn[nH]c1` (single isomer, unassigned) [Example 318, 1-(6-ethyl-5-(1H-pyrazol-4-yl)pyridin-2-yl)-3-((4-fluoro-3-methoxyphenyl)amino) pyrrolidin-2-one], the IC50 is 10 to 100 nM.
For `COCc1cc(N2CCC(Nc3cccc(OC)c3)C2=O)ccc1-c1cn[nH]c1` (single isomer, unassigned) [Example 183, 1-(3-(methoxymethyl)-4-(1H-pyrazol-4-yl)phenyl)-3-((3-methoxyphenyl)amino) pyrrolidin-2-one] the value was 100 to 2200 nM; for `O=C1C(Nc2cccc(F)c2)CCN1c1ccc(-c2cn[nH]c2)c(F)c1` (single isomer, unassigned) [Example 47, 1-(3-fluoro-4-(1H-pyrazol-4-yl)phenyl)-3-((3-fluorophenyl)amino)pyrrolidin-2-one], below 10 nM; for `CNc1nc(N2CCC(Nc3cc(F)cc(OC)c3)C2=O)ccc1-c1cn[nH]c1` (single isomer, unassigned) [Example 252, 3-((3-fluoro-5-methoxyphenyl)amino)-1-(6-(methylamino)-5-(1H-pyrazol-4-yl)pyridin-2-yl)pyrrolidin-2-one], below 10 nM.
`COc1nc(N2CCC(N3CCN(S(C)(=O)=O)CC3)C2=O)ccc1-c1cn[nH]c1` (racemic) [Example 286, 1-(6-methoxy-5-(1H-pyrazol-4-yl)pyridin-2-yl)-3-(4-(methylsulfonyl)piperazin-1-yl)pyrrolidin-2-one]: the IC50 was in the range of 100 to 2200 nM.
In turn, `CCOc1cc(N2CCC(Nc3cc(F)cc(OC)c3)C2=O)ccc1-c1cn[nH]c1` (single isomer, unassigned) [Example 37, 1-(3-ethoxy-4-(1H-pyrazol-4-yl)phenyl)-3-((3-fluoro-5-methoxyphenyl)amino)pyrrolidin-2-one] showed a concentration for half-maximal inhibition (IC50) of 100 to 2200 nM.
`COc1cc(NC2CCN(c3ccc(-c4cn[nH]c4)cc3)C2=O)ccc1F` (single isomer, unassigned) [Example 17, 1-(4-(1H-pyrazol-4-yl)phenyl)-3-((4-fluoro-3-methoxyphenyl)amino)pyrrolidin-2-one] showed an IC50 of 10 to 100 nM.
The result for `COc1cccc(NC2CCN(c3ccc(-c4cn[nH]c4)cc3)C2=O)n1` (racemic) [Example 223, 1-(4-(1H-pyrazol-4-yl)phenyl)-3-((6-methoxypyridin-2-yl)amino)pyrrolidin-2-one] reads 10 to 100 nM.
For `COc1cccc(NC2CCN(c3ccc(-c4ccnc(N)n4)c(C)n3)C2=O)c1` (single isomer, unassigned) [Example 122, 1-(5-(2-aminopyrimidin-4-yl)-6-methylpyridin-2-yl)-3-((3-methoxyphenyl)amino) pyrrolidin-2-one] the value was 10 to 100 nM.
For `COc1cccc(OC2CCN(c3ccc(-c4cn[nH]c4)cc3)C2=O)c1` (centres unmarked) [Example 108, 1-(4-(1H-Pyrazol-4-yl)phenyl)-3-(3-methoxyphenoxy)pyrrolidin-2-one, TFA], the IC50 fell in the range of 10 to 100 nM.
Turning to `COc1cccc(NC2CCN(c3ccc(-c4cn[nH]c4)c(C(N)=O)c3)C2=O)c1` (single isomer, unassigned) [Example 130, 5-(3-((3-Methoxyphenyl)amino)-2-oxopyrrolidin-1-yl)-2-(1H-pyrazol-4-yl)benzamide], the half-maximal inhibitory concentration (IC50) is 100 to 2200 nM.
`COc1nc(N2CCC(Nc3ccccc3F)C2=O)ccc1-c1cn[nH]c1` (racemic) [Example 224, 3-((2-fluorophenyl)amino)-1-(6-methoxy-5-(1H-pyrazol-4-yl)pyridin-2-yl)pyrrolidin-2-one] had an IC50 below 10 nM.
Turning to `N#Cc1cccc(N[C@@H]2CCN(c3ccc(-c4cn[nH]c4)cc3)C2=O)c1` [Example 387, (R)-3-((1-(4-(1H-pyrazol-4-yl)phenyl)-2-oxopyrrolidin-3-yl)amino)benzonitrile], the IC50 was in the range of 10 to 100 nM.
Compound `COc1cc(NC2CCN(c3ccc(-c4cn[nH]c4)cc3)C2=O)ccc1F` (centres unmarked) [Example 4, 1-(4-(1H-pyrazol-4-yl)phenyl)-3-((4-fluoro-3-methoxyphenyl)amino)pyrrolidin-2-one] had an IC50 below 10 nM.
The compound `COc1cccc(N(C)C2CCN(c3ccc(-c4cn[nH]c4)cc3)C2=O)c1` (single isomer, unassigned) [Example 31, 1-(4-(1H-pyrazol-4-yl)phenyl)-3-((3-methoxyphenyl)(methyl)amino)pyrrolidin-2-one] came in with an IC50 of 100 to 2200 nM.
Turning to `COc1nc(N2CCC(Nc3cccc(C#N)c3)C2=O)ccc1-c1cn[nH]c1` (racemic) [Example 257, 3-((1-(6-methoxy-5-(1H-pyrazol-4-yl)pyridin-2-yl)-2-oxopyrrolidin-3-yl)amino)benzonitrile], the IC50 was below 10 nM.
As to `COc1cccc(NC2CCN(c3ccc(-c4cn[nH]c4)c(C(O)C(F)(F)F)c3)C2=O)c1` (racemic) [Example 348, 1-(4-(1H-pyrazol-4-yl)-3-(2,2,2-trifluoro-1-hydroxyethyl)phenyl)-3-((3-methoxyphenyl)amino)pyrrolidin-2-one], the half-inhibitory concentration (IC50) was in the range of 100 to 2200 nM.
`COc1cc(N2CCC(Nc3cccc(OC(F)F)c3)C2=O)ccc1-c1cn[nH]c1` (centres unmarked) [Example 69, 3-((3-(difluoromethoxy)phenyl)amino)-1-(3-methoxy-4-(1H-pyrazol-4-yl)phenyl)pyrrolidin-2-one] came in with an IC50 of 10 to 100 nM.
In turn, `O=C1C(c2ccccc2F)CCN1c1ccc(-c2cn[nH]c2)cc1` (centres unmarked) [Example 104, 1-(4-(1H-pyrazol-4-yl)phenyl)-3-(2-fluorophenyl)pyrrolidin-2-one] registered an IC50 of 10 to 100 nM.
Compound `O=C1C(Nc2cccc(OC(F)F)c2)CCN1c1ccc(-c2cn[nH]c2)cc1` (single isomer, unassigned) [Example 232, 1-(4-(1H-pyrazol-4-yl)phenyl)-3-((3-(difluoromethoxy)phenyl)amino) pyrrolidin-2-one] gave a half-inhibitory concentration (IC50) below 10 nM.
`COc1cc(F)cc(NC2CCN(c3ccc(-c4cn[nH]c4)c(C#N)c3)C2=O)c1` (single isomer, unassigned) [Example 374, 5-(3-((3-fluoro-5-methoxyphenyl)amino)-2-oxopyrrolidin-1-yl)-2-(1H-pyrazol-4-yl)benzonitrile] showed a half-inhibitory concentration (IC50) of 100 to 2200 nM.
The result for `O=C1C(NCc2ccccc2)CCN1c1ccc(-c2cn[nH]c2)cc1` (centres unmarked) [Example 57, 1-(4-(1H-pyrazol-4-yl)phenyl)-3-(benzylamino)pyrrolidin-2-one] reads 100 to 2200 nM; that for `COc1cc(F)cc(NC2CCN(c3ccc(-c4cn[nH]c4)c(C)n3)C2=O)c1` (single isomer, unassigned) [Example 192, 3-((3-fluoro-5-methoxyphenyl)amino)-1-(6-methyl-5-(1H-pyrazol-4-yl)pyridin-2-yl)pyrrolidin-2-one], 10 to 100 nM; that for `CCc1nc(N2CCC(Nc3ccc(F)c(OCC4CC4)c3)C2=O)ccc1-c1cn[nH]c1` (single isomer, unassigned) [Example 212, 3-((3-(cyclopropylmelhoxy)-4-fluorophenyl)amino)-1-(6-ethyl-5-(1H-pyrazol-4-yl)pyridin-2-yl)pyrrolidin-2-one], 100 to 2200 nM.
In turn, `CCOc1cccc(NC2CCN(c3ccc(-c4cn[nH]c4)c(OC)n3)C2=O)c1` (single isomer, unassigned) [Example 218, 3-((3-ethoxyphenyl)amino)-1-(6-methoxy-5-(1H-pyrazol-4-yl)pyridin-2-yl)pyrrolidin-2-one] gave a 50% inhibitory concentration (IC50) below 10 nM.
For `COc1ccc(NC2CCN(c3ccc(-c4cn[nH]c4)cc3)C2=O)cc1F` (single isomer, unassigned) [Example 13, 1-(4-(1H-Pyrazol-4-yl)phenyl)-3-((3-fluoro-4-methoxyphenyl)amino)pyrrolidin-2-one] the value was 100 to 2200 nM.
